We go through 2 compounds from publication PMC10038264, “A new family of glutamate-gated chloride channels in parasitic sea louse Caligus rogercresseyi: A subunit refractory to activation by ivermectin is dominant in heteromeric assemblies” (PLOS Pathogens, 2023).

One experiment has as its system DmGluClα. Details: method as in PMID 7935817, PMID 8702744, PMID 25994631. Particulars: read-out: EC50 glutamate; cited from earlier work.
For experiment [1], the system named is coexpressed CrGluCl-A:CrGluCl-B. Description: Voltage-clamp of oocytes coexpressing CrGluCl-A and CrGluCl-B. It is filed as cell-based, Caligus rogercresseyi. The protocol:
(§1) Adult female Xenopus laevis frogs were anaesthetized by immersion in a1g/L solution tricaine (Ethyl 3-aminobenzoate methanesulfonate, Sigma) buffered to pH 7 with NaHCO3. Surgery was performed 30–40 min later, once the frog was completely anaesthetized judging by loss of reflexes. Ovarian lobes were removed through 1 cm abdominal incision and then kept at 16°C in Barth’s modified solution containing (in mM): 88 NaCl, 1 KCl, 0.4 CaCl2, 0.3 Ca (NO3)2, 0.8 MgSO4, 2.4 NaHCO3, 5 Hepes, 2.5 sodium pyruvate, 100 μg/ml gentamicin sulfate, 100 U/ml penicillin, 100 μg/ml streptomycin, 250 μg/ml amphotericin B, 0.22μm filtered and adjusted to pH 7.5 with Tris-Base. Osmolarity was brought to 220 mOsm with saccharose. The oocytes were manually defolliculated on the same day of extraction and the following day 20 ng cRNA in nuclease-free water was injected into stage V-VI oocytes using a FemtoJet microinjector (Eppendorf). Finally, the injected oocytes were stored in 96 well plates containing Barth’s modified solution and kept at 16°C until experiment day.
(§2) Current measurements at controlled membrane potentials (voltage-clamp experiments) were performed using two intracellular microelectrodes in defolliculated Xenopus oocytes previously microinjected with 20 ng of cRNA. Voltage-clamp recording was performed at room temperature using a TURBO TEC-10CX amplifier (npi electronic GmbH, Tamm, Germany) and PClamp 10.6 software (Axon Instruments, USA), 1 to 4 days after oocyte injection. The oocytes were recorded in a chamber (Model RC-1Z, Warner Instrumenst, USA) under continuous superfusion. […] Reference was an Ag-AgCl electrode connected to the bath via a 3 M KCl in 3% agar bridge. Currents were recorded continuously during the experiments without interruptions for solution changes. Oocytes were held at -30 mV and a voltage protocol consisting of a voltage drop to -100 mV for 25ms followed by a 360 ms ramp from -100 mV to 60mV applied with a period of 565 ms was continuously given. The signal filtered at 1 kHz was acquired with a Digidata 1440A Analog-to-Digital Converter and analyzed with Axon pClamp 10.6 software. The solution that bathed the oocytes during the electrophysiological recordings had the following composition (mM): 115 NaCl, 2 KCl, 1.8 CaCl2, 1 MgCl2, 10 HEPES pH 7.5 obtained with NaOH. For the low chloride solution, all the NaCl was replaced with the gluconate salt of Na. This decreases chloride concentration from 122.6 to 7.6 mM while increasing that of gluconate from 0 to 115 mM. The stock solutions of the drugs in dimethyl sulfoxide (DMSO) were: 10 mM emamectin, 10 mM ivermectin, 100 mM picrotoxin. These were diluted in bath solution to obtain final concentrations.
(§3) The currents were normalized according to the extrapolated maximum current delivered by the Hill adjustment. In this way, the concentration that generates 50% of the maximum effect (EC50) and the Hill coefficient (nH) for each situation were obtained.

For experiment [2], the system named is coexpressed CrGluCl-E:CrGluCl-B. Put plainly: Voltage-clamp of oocytes coexpressing CrGluCl-E and CrGluCl-B. It is filed as cell-based, Caligus rogercresseyi. The settings on record: for Iver response to activation: B:E ratio 1:1, 1μM ivermectin. Here is the method:
as §1
(§4) Current measurements at controlled membrane potentials (voltage-clamp experiments) were performed using two intracellular microelectrodes in defolliculated Xenopus oocytes previously microinjected with 20 ng of cRNA. Voltage-clamp recording was performed at room temperature using a TURBO TEC-10CX amplifier (npi electronic GmbH, Tamm, Germany) and PClamp 10.6 software (Axon Instruments, USA), 1 to 4 days after oocyte injection. The oocytes were recorded in a chamber (Model RC-1Z, Warner Instrumenst, USA) under continuous superfusion. […] Reference was an Ag-AgCl electrode connected to the bath via a 3 M KCl in 3% agar bridge. Currents were recorded continuously during the experiments without interruptions for solution changes. […] The signal filtered at 1 kHz was acquired with a Digidata 1440A Analog-to-Digital Converter and analyzed with Axon pClamp 10.6 software. […]

The test system of a further experiment is CrGluCl-D. Type of experiment: cell-based, Caligus rogercresseyi. The settings on record: CrGluCl-D spontaneous current. Here is the method:
as §1, §2, §3

A further experiment concerns CrGluCl-C. Type of experiment: cell-based, Caligus rogercresseyi. Particulars: for maximal current: CrGluCl-C, saturating concentration of agonist; for nH (ivermectin) / EC50: CrGluCl-C alone; for EC50: irreversible activation. The protocol:
as §1, §2, §3

Experiment [3] deals with coexpressed CrGluCl-C:CrGluCl-A. Put plainly: Voltage-clamp of oocytes coinjected with CrGluCl-C and CrGluCl-A. Type of experiment: cell-based, Caligus rogercresseyi. Here is the method:
as §1, §4

In experiment [4] the test system is coexpressed CrGluCl-C:CrGluCl-B. Description: Voltage-clamp of oocytes coexpressing CrGluCl-C and CrGluCl-B. It is filed as cell-based, Caligus rogercresseyi. Particulars: for Iver response to activation: B:C ratio 1:1, 1 μM ivermectin. The protocol: as §1, §4

Read-outs that look alike come from different tables or passages of the source.

A word on the EC50: it is the concentration that produces a half-maximal response. Take `N[C@@H](CCC(=O)O)C(=O)O` [glutamate, L-glutamate]: the EC50 with DmGluClα was 23 µM; in experiment [1] (A:B ratio 1:1), 82 ± 35 µM; in experiment [1] (A:B ratio 1:4) it was 72 ± 47 µM; in experiment [1] (A:B ratio 4:1), 89 ± 47 µM; in experiment [2] (B:E ratio 1:1, 60 mV), 534 ± 239 µM; in experiment [3] (C:A 1:1, 60 mV, single Hill equation), 7.9 ± 0.9 µM. Also, the EC50 in experiment [4] (B:C ratio 1:1) was found to be 53 ± 18.8 µM. In addition, the direct activating effect result with CrGluCl-D was “lack a direct activating effect”. Further, the maximal current with CrGluCl-C is reported as 3.5 ± 1.7 μA.

With ivermectin, the “Iver response to activation” value was “Insensitive” in experiment [1] (A:B ratio 1:1); “Insensitive” in experiment [1] (A:B ratio 1:4); “Insensitive” in experiment [1] (A:B ratio 4:1); “without any activating effect” in experiment [2]; “Insensitive” in experiment [2] (listed as Iver); “Sensitive” in experiment [3] (C:A 1:1, 60mV). Also, the “Iver response to activation” value in experiment [3] (C:A 1:1, -80mV) was “Sensitive”; in experiment [4], “failed to elicit a significant response”; in experiment [4] (listed as Iver), “Insensitive”. Also, the direct activating effect result with CrGluCl-D was “lack a direct activating effect”. Besides, the “nH (ivermectin)” value with CrGluCl-C is given as 2.1; with CrGluCl-C (listed as Ivermectin), 2.1 ± 0.67. The figures for the EC50 in the experiment on CrGluCl-C (listed as Ivermectin) and in the experiment on CrGluCl-C (read-out: EC50 Ivermectin) were 0.031 ± 0.014 µM and 0.0311 ± 0.0144 µM, respectively. In the experiment with CrGluCl-C, this compound displayed a maximal current of 3.7 ± 1.3 μA.
